Results taken from EPA's ToxRefDB 2.

Experiments:
rat [1] = settings: Sub-acute repeat dose toxicity; Oral; Gavage/Intubation; dose end: 7 day; group: systemic; systemic / organ weight / adrenal gland / absolute + systemic / organ weight / liver / absolute + systemic / pathology microscopic / kidney…
rabbit [2] = settings: Prenatal developmental toxicity study, Oral, Gavage/Intubation, dose end: 19 GD
dog [3] = settings: Sub-acute repeat dose toxicity, beagle, Oral, Gavage/Intubation, dose end: 7 day, group: systemic
dog [4] = settings: Subchronic oral toxicity in nonrodent, beagle, Gavage/Intubation, dose end: 90 day, group: systemic
mouse [5] = settings: Chronic toxicity, Oral, Gavage/Intubation, dose end: 186 day, group: systemic
rat [6] = settings: Sub-acute repeat dose toxicity, Oral, Gavage/Intubation, dose end: 14 day, group: systemic
rat [7] = settings: Sub-acute repeat dose toxicity; Injection; Intravenous; dose end: 7 day; group: systemic; systemic / hematology / platelet / platelet + systemic / organ weight / liver / absolute + systemic / pathology microscopic / liver / …
rat [8] = settings: Sub-acute repeat dose toxicity; Oral; Gavage/Intubation; dose end: 7 day; group: systemic; systemic / clinical chemistry / globulins / globulins + systemic / clinical chemistry / bilirubin / total bilirubin + systemic / organ …
mouse [9] = settings: Fertility (Segment I), Oral, Gavage/Intubation, dose end: 1 generation
mouse [10] = settings: Sub-acute repeat dose toxicity, Oral, Gavage/Intubation, dose end: 30 day, group: systemic
rat [11] = settings: Prenatal developmental toxicity study, sprague dawley, Oral, Gavage/Intubation, dose end: 17 GD
rat [12] = settings: Chronic toxicity; sprague dawley; Oral; Gavage/Intubation; dose end: 6 month; group: systemic; systemic / clinical chemistry / alanine aminotransferase (alt/sgpt) / alanine aminotransferase (alt/sgpt) + systemic / clinical chemistry / …
dog [13] = settings: Chronic toxicity; beagle; Oral; Capsule; dose end: 6 month; group: systemic; systemic / clinical chemistry / potassium / potassium + systemic / in life observation / body weight / body weight + systemic / in life …
rat [14] = settings: Fertility (Segment I), sprague dawley, Oral, Gavage/Intubation, dose end: 7 GD
rabbit [15] = settings: Prenatal developmental toxicity study, new zealand white, Oral, Gavage/Intubation, dose end: 19 GD
rat [16] = settings: Fertility (Segment I), sprague dawley, Oral, Gavage/Intubation, dose end: 7 GD; remark: listed apart in the source
rat [17] = settings: Fertility (Segment I), sprague dawley, Oral, Gavage/Intubation, dose end: 49 day
[18] = systemic / clinical chemistry / alanine aminotransferase (alt/sgpt) / alanine aminotransferase (alt/sgpt) + systemic / pathology microscopic…
[19] = systemic / clinical chemistry / alkaline phosphatase (alp/alk) / alkaline phosphatase (alp/alk) + systemic / clinical chemistry / …
[20] = systemic / clinical chemistry / alanine aminotransferase (alt/sgpt) / alanine aminotransferase (alt/sgpt) + systemic / clinical chemistry / …
[21] = systemic / clinical chemistry / alkaline phosphatase (alp/alk) / alkaline phosphatase (alp/alk)
[22] = systemic / clinical chemistry / bilirubin / total bilirubin + systemic / in life observation / body weight / body weight + systemic / organ …
[23] = systemic / clinical chemistry / cytochrome p450, nos / cytochrome p450, nos + systemic / clinical chemistry / glucose / glucose + systemic…
[24] = systemic / clinical chemistry / cytochrome p450, nos / cytochrome p450, nos + systemic / in life observation / clinical signs / lacrimation …
[25] = group: maternal, reproductive / reproductive performance / mating / mating + reproductive / reproductive performance / precoital interval / precoital …
[26] = group: parental, systemic / in life observation / body weight / body weight gain
[27] = systemic / organ weight / liver / absolute + systemic / pathology microscopic / liver / hypertrophy
[28] = group: developmental, systemic / in life observation / body weight / fetal weight
[29] = group: maternal, reproductive / reproductive performance / implantations / implantations + reproductive / reproductive performance / postimplantation loss / …
[30] = group: maternal, systemic / in life observation / body weight / body weight + systemic / in life observation / clinical signs / piloerection + systemic / in …
[31] = group: maternal, reproductive / offspring survival early / litter viability other / total litter loss + reproductive / reproductive performance / estrous …
[32] = group: maternal, reproductive / reproductive performance / fertility / fertility + reproductive / reproductive performance / precoital interval / precoital …
[33] = group: parental, systemic / in life observation / clinical signs / alopecia + systemic / in life observation / body weight / body weight gain + systemic / in…
[34] = group: maternal, systemic / in life observation / body weight / body weight gain + systemic / in life observation / clinical signs / defecation + systemic / …
[35] = group: maternal, reproductive / reproductive performance / estrous cycle / abnormal + reproductive / reproductive performance / estrous cycle / corpora lutea…
[36] = group: maternal, reproductive / reproductive performance / implantations / implantations
[37] = group: parental, systemic / in life observation / body weight / body weight gain + systemic / in life observation / clinical signs / abnormal respiratory …
[38] = group: maternal, reproductive / reproductive performance / fertility / fertility + reproductive / reproductive performance / pregnancy index / pregnancy …
[39] = group: parental, systemic / in life observation / body weight / body weight + systemic / in life observation / body weight / body weight gain + systemic / in…

With `CCc1nn(CCO)c(CC)c1Oc1cc(C#N)cc(C#N)c1` [Lersivirine] the LOAEL (rat [1]) was over 35 mg/kg/day, the NEL (rat [1]) was under 35 mg/kg/day and the NOAEL (rat [1]) was at least 35 mg/kg/day. For the same compound, the NEL (rabbit [2]; group: developmental, developmental / developmental malformation / bone / absent + developmental / developmental malformation / bone / fused) was 250 mg/kg/day, the NEL (rabbit [2]; group: maternal, reproductive / reproductive performance / postimplantation loss / postimplantation loss) was under 100 mg/kg/day and the LOAEL (dog [3]; [18]) was over 150 mg/kg/day. For the same compound, the NOAEL (dog [3]; [18]) was at least 150 mg/kg/day, the LEL (dog [3]; [19]) was 10 mg/kg/day and the NEL (dog [3]; [19]) was under 10 mg/kg/day. It also gave an LOAEL (dog [4]; [20]) of over 60 mg/kg/day, an NOAEL (dog [4]; [20]) of at least 60 mg/kg/day and an LEL (dog [4]; [21]) of 7 mg/kg/day. The NEL (dog [4]; [21]) was under 7 mg/kg/day, the LEL (mouse [5]; [19]) was 70 mg/kg/day and the NEL (mouse [5]; [19]) was under 70 mg/kg/day. The LOAEL (mouse [5]; [22]) was over 700 mg/kg/day, the NOAEL (mouse [5]; [22]) was at least 700 mg/kg/day and the LOAEL (rat [6]; [23]) was over 300 mg/kg/day. The NOAEL (rat [6]; [23]) was at least 300 mg/kg/day, the LEL (rat [6]; [24]) was 20 mg/kg/day and the NEL (rat [6]; [24]) was under 20 mg/kg/day. The LOAEL (rat [7]) was over 35 mg/kg/day, the NEL (rat [7]) was under 35 mg/kg/day and the NOAEL (rat [7]) was at least 35 mg/kg/day. For the same compound, the LOAEL (rat [8]) was over 150 mg/kg/day, the NEL (rat [8]) was under 150 mg/kg/day and the NOAEL (rat [8]) was at least 150 mg/kg/day. The LEL (mouse [9]; [25]) was 700 mg/kg/day, the LOAEL (mouse [9]; [25]) was over 700 mg/kg/day and the NEL (mouse [9]; [25]) was 200 mg/kg/day. For the same compound, the NOAEL (mouse [9]; [25]) was at least 700 mg/kg/day, the LEL (mouse [9]; [26]) was 200 mg/kg/day and the LOAEL (mouse [9]; [26]) was over 700 mg/kg/day. It also gave an NEL (mouse [9]; [26]) of 70 mg/kg/day, an NOAEL (mouse [9]; [26]) of at least 700 mg/kg/day and an LOAEL (mouse [10]; [20]) of over 500 mg/kg/day. It also gave an NOAEL (mouse [10]; [20]) of at least 500 mg/kg/day, an LEL (mouse [10]; [27]) of 50 mg/kg/day and an NEL (mouse [10]; [27]) of under 50 mg/kg/day.

In the case of `CCc1c(C(=O)NN2CCCCC2)nn(-c2ccc(Cl)cc2Cl)c1-c1ccc(Br)cc1` [Surinabant], the LEL (rat [11]; [28]) is reported as 100 mg/kg/day, the LOAEL (rat [11]; [28]) is reported as 100 mg/kg/day and the NEL (rat [11]; [28]) is reported as 10 mg/kg/day. For the same compound, the NOAEL (rat [11]; [28]) was 10 mg/kg/day, the LOAEL (rat [11]; [29]) was 100 mg/kg/day and the NOAEL (rat [11]; [29]) was 10 mg/kg/day. The LEL (rat [11]; [30]) was 10 mg/kg/day, the NEL (rat [11]; [30]) was under 10 mg/kg/day and the LEL (rat [12]) was 30 mg/kg/day. It also gave an LOAEL (rat [12]) of over 60 mg/kg/day, an NEL (rat [12]) of under 30 mg/kg/day and an NOAEL (rat [12]) of at least 60 mg/kg/day. The LEL (dog [13]) was 1.5 mg/kg/day, the LOAEL (dog [13]) was 1.5 mg/kg/day and the NEL (dog [13]) was under 1.5 mg/kg/day. For the same compound, the NOAEL (dog [13]) was under 1.5 mg/kg/day, the LOAEL (rat [14]; [31]) was over 1000 mg/kg/day and the NOAEL (rat [14]; [31]) was at least 1000 mg/kg/day. It also gave an LEL (rat [14]; [32]) of 10 mg/kg/day, an NEL (rat [14]; [32]) of under 10 mg/kg/day and an LEL (rat [14]; [33]) of 10 mg/kg/day. The LOAEL (rat [14]; [33]) was over 1000 mg/kg/day, the NEL (rat [14]; [33]) was under 10 mg/kg/day and the NOAEL (rat [14]; [33]) was at least 1000 mg/kg/day. It also gave an LEL (rabbit [15]; [28]) of 1 mg/kg/day, an LOAEL (rabbit [15]; [28]) of over 20 mg/kg/day and an NEL (rabbit [15]; [28]) of under 1 mg/kg/day. For the same compound, the NOAEL (rabbit [15]; [28]) was at least 20 mg/kg/day, the LEL (rabbit [15]; [34]) was 1 mg/kg/day and the LOAEL (rabbit [15]; [34]) was over 20 mg/kg/day. For the same compound, the NEL (rabbit [15]; [34]) was under 1 mg/kg/day, the NOAEL (rabbit [15]; [34]) was at least 20 mg/kg/day and the LOAEL (rat [16]; [35]) was 50 mg/kg/day. It also gave an NOAEL (rat [16]; [35]) of 10 mg/kg/day, an LEL (rat [16]; [36]) of 10 mg/kg/day and an NEL (rat [16]; [36]) of under 10 mg/kg/day. The LEL (rat [16]; [37]) was 10 mg/kg/day, the LOAEL (rat [16]; [37]) was over 100 mg/kg/day and the NEL (rat [16]; [37]) was under 10 mg/kg/day. It also gave an NOAEL (rat [16]; [37]) of at least 100 mg/kg/day, an LEL (rat [17]; [38]) of 300 mg/kg/day and an LOAEL (rat [17]; [38]) of 300 mg/kg/day. It also gave an NEL (rat [17]; [38]) of 100 mg/kg/day, an NOAEL (rat [17]; [38]) of 100 mg/kg/day and an LEL (rat [17]; [39]) of 100 mg/kg/day. For the same compound, the NEL (rat [17]; [39]) was under 100 mg/kg/day, the LOAEL (rat [17]; group: parental, systemic / pathology gross / sperm measure / sperm count) was 300 mg/kg/day and the NOAEL (rat [17]; group: parental, systemic / pathology gross / sperm measure / sperm count + systemic / in life observation / body weight / body weight + systemic / in life …) was 100 mg/kg/day.
